Experimental data taken from PubChem BioAssay AID1963847 (Molecular Pharmacology Branch, DTP, NCI, 2024).
“And” between values parts separate entries of the source, which are not always exact repeats. Equal entries are not always repeated.

Tested on: 415267-285-R-J2-PDC complex spheroid viability
Assay: Anticancer human tumor 415267-285-R-J2-PDC patient-derived breast carcinoma cell line growth inhibition [POLQ]
Conditions: for viability, T/C: stronger effect = lower value
Method: Multicellular complex tumor spheroid response to Polymerase (POL) inhibitors (novobiocin, ART-558, RP6685) in combination with a variety of drugs and investigational agents in selected tumor cell lines
The POL inhibitors (novobiocin, ART-558, and RP6685) were evaluated both individually and in combination with standard of care and investigational anticancer small molecules within a complex spheroid model of solid tumors. . Complex spheroids include a stromal component modeled by human endothelial cells (HUVEC) and fibroblasts modeled by human mesenchymal stem cells (MSCs). The concentration ranges selected for each drug and investigational agent were based upon clinically achievable concentrations if the clinical Cmax of the agent was known.
Compounds. The drugs and investigational agents: novobiocin (NSC847541), ART-558 (NSC835418), RP-6685 (NSC848927), peposertib (NSC802822), ceralasertib (NSC780249), elimusertib (NSC800525), camonsertib (NSC841442), AZD-1390 (NSC803789), olaparib (NSC753686), talazoparib (NSC767125), rucaparib (NSC756644), sotorasib (NSC818433), MRTX-1133 (NSC836407), SN-38 (NSC673596), topotecan (NSC609699), epotoside (NSC141540), doxorubicin (NSC123127), gemcitabine (NSC613327), 5-fluorouracil (NSC19893), paclitaxel (NSC125973), vemurafenib (NSC761431), MSA-2 (NSC828583), SN-011 (NSC837082), adavosertib (NSC754352), prexasertib (NSC758257), carboplatin (NSC241240) and oxaliplatin (NSC266046), were obtained from the National Cancer Institute (NCI) Developmental Therapeutics Program Chemical Repository (21). The FDA-approved anticancer drug set is available from the Developmental Therapeutics Program at https://dtp.cancer.gov/organization/dscb/obtaining/. […] The stock solutions were prepared in dimethyl sulfoxide (DMSO, Sigma-Aldrich, St. Louis, MO, cat. D2650), except for the platinum compounds which were prepared in saline (Quality Biological, Gaithersburg, MD, cat. 114-055-101), at 800-fold the tested concentration and stored at -70 degrees C prior to their use. All drugs and investigational agents were tested over a range starting from a high concentration at or near the clinical Cmax and decreasing in half-log increments. If the clinical Cmax for an agent had not been determined, the highest concentration tested was 10 microM, except for SN-38, which was tested at a high concentration of 1 microM.
Cell Culture. All cells were maintained in an incubator at 37 degrees C and 5% CO2 with 95% humidity. The PDC lines were cultured according to standard operating procedures established by the NCI PDMR (https://pdmr.cancer.gov). Table 3 of the manuscript, lists the cell lines along with the number of the three cell types plated to form the mct-spheroids and media for tumor cell growth. After thawing, all PDC lines, except 997537-175-T-J1-PDC and 415267-285-R-J2-PDC, were cultured in Matrigel-coated flasks prepared with a working solution of 1X Ham's F-12 nutrient mix, without supplementation (Thermo Fisher Scientific, cat. 11765054), 100 U/mL penicillin-streptomycin (Thermo Fisher Scientific, cat. 15140122), and 2.5% Matrigel (Corning Inc., Corning, NY, cat. 354248) for the first three passages. The two PDC lines 997537-175-T-J1-PDC and 415267-285-R-J2-PDC were cultured on uncoated flasks. The 857933-349-R-J2-PDC line was cultured in 6C/Colon 1B media containing advanced DMEM/F-12 (Thermo Fisher Scientific, cat. 12634028), 10 mM HEPES (Thermo Fisher Scientific, cat. 15630080), 1X GlutaMAX supplement (Thermo Fisher Scientific, cat. 35050061), 0.1 mg/mL primocin (InvivoGen, San Diego, CA, cat. ant-pm-2), 10% defined fetal bovine serum, heat inactivated (HyClone Laboratories Inc., Logan, UT, cat. SH30070.03HI), 50% L-WRN conditioned media (ATCC, cat. CRL-3276), 1.25 mM N-Acetyl-L-cysteine (Sigma-Aldrich, cat. A9165), 10 mM nicotinamide (Sigma-Aldrich, cat. N0636), 1X B-27 supplement (Thermo Fisher Scientific, cat. 17504044), 1X N-2 supplement (Thermo Fisher Scientific, cat. […]

[1] = curve of first compound, second compound 0.0316 µM
[2] = curve of first compound, second compound 0.1 µM
[3] = curve of first compound, second compound 0.316 µM
[4] = curve of first compound, second compound 1 µM
[5] = curve of first compound, second compound 3.16 µM
[6] = curve of first compound, second compound 10 µM
[7] = second compound 0.0316 µM, first compound 0.0316 µM
[8] = second compound 0.0316 µM, first compound 0.1 µM
[9] = second compound 0.0316 µM, first compound 0.316 µM
[10] = second compound 0.0316 µM, first compound 1 µM
[11] = second compound 0.0316 µM, first compound 3.16 µM
[12] = second compound 0.0316 µM, first compound 10 µM
[13] = second compound 0.1 µM, first compound 0.0316 µM
[14] = second compound 0.1 µM, first compound 0.1 µM
[15] = second compound 0.1 µM, first compound 0.316 µM
[16] = second compound 0.1 µM, first compound 1 µM
[17] = second compound 0.1 µM, first compound 3.16 µM
[18] = second compound 0.1 µM, first compound 10 µM
[19] = second compound 0.316 µM, first compound 0.0316 µM
[20] = second compound 0.316 µM, first compound 0.1 µM
[21] = second compound 0.316 µM, first compound 0.316 µM
[22] = second compound 0.316 µM, first compound 1 µM
[23] = second compound 0.316 µM, first compound 3.16 µM
[24] = second compound 0.316 µM, first compound 10 µM
[25] = second compound 1 µM, first compound 0.0316 µM
[26] = second compound 1 µM, first compound 0.1 µM
[27] = second compound 1 µM, first compound 0.316 µM
[28] = second compound 1 µM, first compound 1 µM
[29] = second compound 1 µM, first compound 3.16 µM
[30] = second compound 1 µM, first compound 10 µM
[31] = second compound 3.16 µM, first compound 0.0316 µM
[32] = second compound 3.16 µM, first compound 0.1 µM
[33] = second compound 3.16 µM, first compound 0.316 µM
[34] = second compound 3.16 µM, first compound 1 µM
[35] = second compound 3.16 µM, first compound 3.16 µM
[36] = second compound 3.16 µM, first compound 10 µM
[37] = second compound 10 µM, first compound 0.0316 µM
[38] = second compound 10 µM, first compound 0.1 µM
[39] = second compound 10 µM, first compound 0.316 µM
[40] = second compound 10 µM, first compound 1 µM
[41] = second compound 10 µM, first compound 3.16 µM
[42] = second compound 10 µM, first compound 10 µM
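Further: spheroids exposed to compounds for one week before readout.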
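Wherever viability, T/C is given: luminescence used as stand-in measure of viable cells; 100% = DMSO vehicle control viability.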

Work on `O=c1[nH]cc(F)c(=O)[nH]1` + Cc1cccc(N(C)C(=O)C2C(O)CCN2c2nc(C)cc(C(F)(F)F)c2C#N)c1 yielded an IC50 [1] of 222 nM, an IC50 [2] of 207 nM and an IC50 [3] of 203 nM. For the same molecule, the IC50 [4] was 181 nM, the IC50 [5] was 192 nM and the IC50 [6] was 179 nM. It also gave a viability, T/C [7] of 87.3%, a viability, T/C [8] of 83.9% and a viability, T/C [9] of 35.1%. The viability, T/C [10] was 30.1%, the viability, T/C [11] was 27.6% and the viability, T/C [12] was 43%. It also gave a viability, T/C [13] of 97.1%, a viability, T/C [14] of 72.6% and a viability, T/C [15] of 37.3%. It also gave a viability, T/C [16] of 27.2%, a viability, T/C [17] of 28% and a viability, T/C [18] of 39%. For the same molecule, the viability, T/C [19] was 98.8%, the viability, T/C [20] was 72% and the viability, T/C [21] was 36.9%. It also gave a viability, T/C [22] of 26.6%, a viability, T/C [23] of 26.8% and a viability, T/C [24] of 36.1%. It also gave a viability, T/C [25] of 100%, a viability, T/C [26] of 64.8% and a viability, T/C [27] of 36.7%. For the same molecule, the viability, T/C [28] was 28.5%, the viability, T/C [29] was 25.6% and the viability, T/C [30] was 35.4%. For the same molecule, the viability, T/C [31] was 95.8%, the viability, T/C [32] was 67.9% and the viability, T/C [33] was 36.6%. The viability, T/C [34] was 28.8%, the viability, T/C [35] was 33.5% and the viability, T/C [36] was 33.6%. For the same molecule, the viability, T/C [37] was 92.1%, the viability, T/C [38] was 64.5% and the viability, T/C [39] was 36.3%. It also gave a viability, T/C [40] of 26.8%, a viability, T/C [41] of 24.7% and a viability, T/C [42] of 29.4%.
With `O=C(c1cc(Cc2n[nH]c(=O)c3ccccc23)ccc1F)N1CCN(C(=O)C2CC2)CC1` the viability, T/C (compound 0.0316 µM) was 92.7% and 95.5% and 108%, the viability, T/C (compound 0.1 µM) was 109% and 91.4% and 105% and the viability, T/C (compound 0.316 µM) was 86.8% and 95.3% and 97.5%. The viability, T/C (compound 1 µM) was 87.8% and 94.8% and 102%, the viability, T/C (compound 3.16 µM) was 95.3% and 95.4% and 109% and the viability, T/C (compound 10 µM) was 76.9% and 90.6% and 102%. It also gave an IC50 (curve of compound) greater than 10000 nM.
`O=c1[nH]cc(F)c(=O)[nH]1` + Nc1ccc(C#CCN(C(=O)Cc2ncc(C(F)(F)F)cc2C(F)(F)F)c2ccc(F)cc2)nn1 gave an IC50 [1] of 435 nM, an IC50 [2] of 262 nM and an IC50 [3] of 283 nM. For the same molecule, the IC50 [4] was 307 nM, the IC50 [5] was 268 nM and the IC50 [6] was 309 nM. It also gave a viability, T/C [7] of 101%, a viability, T/C [8] of 93% and a viability, T/C [9] of 57.5%. For the same molecule, the viability, T/C [10] was 21.4%, the viability, T/C [11] was 29.9% and the viability, T/C [12] was 40.1%. It also gave a viability, T/C [13] of 86.4%, a viability, T/C [14] of 85.5% and a viability, T/C [15] of 43%. For the same molecule, the viability, T/C [16] was 20.9%, the viability, T/C [17] was 30% and the viability, T/C [18] was 38.5%. For the same molecule, the viability, T/C [19] was 93.6%, the viability, T/C [20] was 97% and the viability, T/C [21] was 45.1%. It also gave a viability, T/C [22] of 24.4%, a viability, T/C [23] of 24.6% and a viability, T/C [24] of 46.4%. For the same molecule, the viability, T/C [25] was 97%, the viability, T/C [26] was 92.7% and the viability, T/C [27] was 49.1%. For the same molecule, the viability, T/C [28] was 27.1%, the viability, T/C [29] was 30.4% and the viability, T/C [30] was 35.4%. It also gave a viability, T/C [31] of 106%, a viability, T/C [32] of 90.7% and a viability, T/C [33] of 44.5%. It also gave a viability, T/C [34] of 22.4%, a viability, T/C [35] of 24.1% and a viability, T/C [36] of 42.3%. The viability, T/C [37] was 113%, the viability, T/C [38] was 87% and the viability, T/C [39] was 52.5%. The viability, T/C [40] was 26.5%, the viability, T/C [41] was 26.6% and the viability, T/C [42] was 39%.
